Substitutions are numbered along the chain they refer to.

The target of the first assay is T1, AR protein (Homo sapiens, UniProt P10275).
T1 construct: degradation activity of the compounds disclosed in the present disclosure on AR protein in VCaP cells; host or cells: VCaP
T1 sequence (P10275 1-920): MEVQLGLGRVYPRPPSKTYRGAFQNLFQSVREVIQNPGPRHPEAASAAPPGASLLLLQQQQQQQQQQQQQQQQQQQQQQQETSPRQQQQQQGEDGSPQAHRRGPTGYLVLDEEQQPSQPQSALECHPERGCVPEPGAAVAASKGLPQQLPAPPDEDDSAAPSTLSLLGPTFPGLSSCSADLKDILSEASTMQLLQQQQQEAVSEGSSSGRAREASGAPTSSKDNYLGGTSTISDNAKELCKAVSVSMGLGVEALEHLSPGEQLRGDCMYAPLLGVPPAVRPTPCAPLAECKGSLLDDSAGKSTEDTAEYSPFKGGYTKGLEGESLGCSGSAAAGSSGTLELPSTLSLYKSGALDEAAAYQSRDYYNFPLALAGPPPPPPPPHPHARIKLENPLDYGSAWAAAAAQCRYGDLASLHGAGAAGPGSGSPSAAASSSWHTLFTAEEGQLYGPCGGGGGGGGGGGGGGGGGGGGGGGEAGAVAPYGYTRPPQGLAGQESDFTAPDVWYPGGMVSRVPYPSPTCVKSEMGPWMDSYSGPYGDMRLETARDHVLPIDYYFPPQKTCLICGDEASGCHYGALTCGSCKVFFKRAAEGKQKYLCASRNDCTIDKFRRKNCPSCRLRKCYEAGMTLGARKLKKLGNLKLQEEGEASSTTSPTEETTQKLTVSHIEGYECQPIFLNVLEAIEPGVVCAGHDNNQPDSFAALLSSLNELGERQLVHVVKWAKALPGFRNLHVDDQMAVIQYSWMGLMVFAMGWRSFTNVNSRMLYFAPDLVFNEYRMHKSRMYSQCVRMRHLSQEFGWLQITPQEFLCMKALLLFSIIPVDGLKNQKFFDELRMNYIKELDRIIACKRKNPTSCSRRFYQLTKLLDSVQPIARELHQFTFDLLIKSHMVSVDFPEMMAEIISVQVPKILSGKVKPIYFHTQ
The experiment in a line: Degradation of AR protein in VCaP cells (Western blot). The class given is cell-based. Conditions: compound at 10 nM, 8 hours, read-out: Degradation rate of the AR protein in VCaP cells, 10 nM (%). In outline: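 VCaP cells treated with compound alongside solvent controls for 8 h, then lysed in RIPA and protein quantified by BCA. AR detected by SDS-PAGE/Western blot with infrared imaging. Degradation rate calculated from band grayscale, with GAPDH as internal reference.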
Background: In western blotting, separated proteins are transferred to a membrane and probed.
With `COc1cc(O[C@H]2CC[C@H](NC(=O)c3ccc(N4CC(CN5CCC6(CC5)COc5c6ccc6c5C(=O)N(C5CCC(=O)NC5=O)C6=O)C4)nn3)CC2)ccc1C#N` (stereo partly drawn) [Compound 251], the inhibition at 0.01 µM worked out at 48%.
For the compound `N#Cc1ccc(O[C@H]2CC[C@H](NC(=O)c3ccc(N4CCC5(CC4)CC(C(=O)N4CCC6(CC4)COc4c6ccc6c4CN(C4CCC(=O)NC4=O)C6=O)C5)nn3)CC2)cc1Cl` (stereo partly drawn) [Compound 254], the inhibition at 0.01 µM stood at 56%.
On the same count and under the same terms, the same measure for `N#Cc1ccc(O[C@H]2CC[C@H](NC(=O)c3ccc(N4CC5(CCC(C(=O)N6CCC7(CC6)COc6c7ccc7c6CN(C6CCC(=O)NC6=O)C7=O)CC5)C4)nn3)CC2)cc1Cl` (stereo partly drawn) [Compound 255]: 63%.

The assay is the same for the next values; noted with them: compound at 100 nM, 8 hours, read-out: Degradation rate of the AR protein in VCaP cells, 100 nM (%).
For `COc1cc(O[C@H]2CC[C@H](NC(=O)c3ccc(N4CC(CN5CCC6(CC5)COc5c6ccc6c5C(=O)N(C5CCC(=O)NC5=O)C6=O)C4)nn3)CC2)ccc1C#N` (stereo partly drawn) [Compound 251], the inhibition at 0.1 µM was 73%.
On the same count and under the same terms, the same measure for `N#Cc1ccc(O[C@H]2CC[C@H](NC(=O)c3ccc(N4CCC5(CC4)CC(C(=O)N4CCC6(CC4)COc4c6ccc6c4CN(C4CCC(=O)NC4=O)C6=O)C5)nn3)CC2)cc1Cl` (stereo partly drawn) [Compound 254]: 85%; for `N#Cc1ccc(O[C@H]2CC[C@H](NC(=O)c3ccc(N4CC5(CCC(C(=O)N6CCC7(CC6)COc6c7ccc7c6CN(C6CCC(=O)NC6=O)C7=O)CC5)C4)nn3)CC2)cc1Cl` (stereo partly drawn) [Compound 255]: 82%.

The next assay concerns VCaP cells. In words: Inhibition of proliferation of VCaP cells (WST-8). Conditions: Homo sapiens; VCaP cells, 168 hours, WST-8 absorbance at 450 nm; read-out: IC50 for inhibiting the proliferation of VCaP cells. The class given is cell-based. In outline: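 VCaP FGC cells, 15000 per well in DMEM with 10% FBS, were cultured at 37° C, 5% CO2. On day nine, WST-8 reagent was added to read proliferation.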
`COc1cc(O[C@H]2CC[C@H](NC(=O)c3ccc(N4CC(CN5CCC6(CC5)COc5c6ccc6c5C(=O)N(C5CCC(=O)NC5=O)C6=O)C4)nn3)CC2)ccc1C#N` (stereo partly drawn) [Compound 251]: the IC50 turned out to be 270 nM.
On to `N#Cc1ccc(O[C@H]2CC[C@H](NC(=O)c3ccc(N4CCC5(CC4)CC(C(=O)N4CCC6(CC4)COc4c6ccc6c4CN(C4CCC(=O)NC4=O)C6=O)C5)nn3)CC2)cc1Cl` (stereo partly drawn) [Compound 254], for which the IC50 stood at 2.5 nM.
Still for that read-out and setting: the figure for `N#Cc1ccc(O[C@H]2CC[C@H](NC(=O)c3ccc(N4CC5(CCC(C(=O)N6CCC7(CC6)COc6c7ccc7c6CN(C6CCC(=O)NC6=O)C7=O)CC5)C4)nn3)CC2)cc1Cl` (stereo partly drawn) [Compound 255] is 11 nM.

In another assay the test system is LNCaP FGC cells. In words: Inhibition of proliferation of LNCaP cells (WST-8). The class given is cell-based. Conditions: Homo sapiens, LNCaP, 96 h, LNCaP FGC cells, 96 hours, WST-8 absorbance at 450 nm; read-out: IC50 for inhibiting the proliferation of LNCaP cells. Here is the method: The cells were cultured in a cell culture incubator with 5% CO2 at 37° C. overnight. […] On the sixth day, 96 well plates were taken out, and 20 μL of WST-8 (Beytime, C0040) reagent was added to each well.
In general terms: Formazan colour is commonly taken as a measure of viable cells.
With `COc1cc(O[C@H]2CC[C@H](NC(=O)c3ccc(N4CC(CN5CCC6(CC5)COc5c6ccc6c5C(=O)N(C5CCC(=O)NC5=O)C6=O)C4)nn3)CC2)ccc1C#N` (stereo partly drawn) [Compound 251], the IC50 turned out to be 150 nM.
For `N#Cc1ccc(O[C@H]2CC[C@H](NC(=O)c3ccc(N4CCC5(CC4)CC(C(=O)N4CCC6(CC4)COc4c6ccc6c4CN(C4CCC(=O)NC4=O)C6=O)C5)nn3)CC2)cc1Cl` (stereo partly drawn) [Compound 254], the IC50 worked out at 49100 nM.
Same read-out and setting: the same measure for `N#Cc1ccc(O[C@H]2CC[C@H](NC(=O)c3ccc(N4CC5(CCC(C(=O)N6CCC7(CC6)COc6c7ccc7c6CN(C6CCC(=O)NC6=O)C7=O)CC5)C4)nn3)CC2)cc1Cl` (stereo partly drawn) [Compound 255]: 50200 nM.

The target of another assay is T2, AR protein (Homo sapiens, UniProt P10275, T878A).
T2 construct: degradation activity of the compounds disclosed in the present disclosure on AR protein in LNCaP cells; host or cells: LNCaP FGC
T2 sequence (P10275 1-920 T878A): T1 sequence (P10275 1-920) with T878A
In words: Degradation of AR protein in LNCaP cells (Western blot). Conditions: LNCaP cells, compound 10 nM, 8 hours, Western blot grayscale, GAPDH internal reference; read-out: Degradation rates of the AR protein in LNCaP cells, 10 nM (%). The class given is cell-based. In outline: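 AR assessed by SDS-PAGE/Western blot with infrared imaging; band greyscale normalised to GAPDH gave percent degradation.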
Regarding `COc1cc(O[C@H]2CC[C@H](NC(=O)c3ccc(N4CC(CN5CCC6(CC5)COc5c6ccc6c5C(=O)N(C5CCC(=O)NC5=O)C6=O)C4)nn3)CC2)ccc1C#N` (stereo partly drawn) [Compound 251], the inhibition at 0.01 µM was found to be 45%.
Consider `N#Cc1ccc(O[C@H]2CC[C@H](NC(=O)c3ccc(N4CCC5(CC4)CC(C(=O)N4CCC6(CC4)COc4c6ccc6c4CN(C4CCC(=O)NC4=O)C6=O)C5)nn3)CC2)cc1Cl` (stereo partly drawn) [Compound 254], for which the inhibition at 0.01 µM was found to be 53%.
As to `N#Cc1ccc(O[C@H]2CC[C@H](NC(=O)c3ccc(N4CC5(CCC(C(=O)N6CCC7(CC6)COc6c7ccc7c6CN(C6CCC(=O)NC6=O)C7=O)CC5)C4)nn3)CC2)cc1Cl` (stereo partly drawn) [Compound 255], the inhibition at 0.01 µM came out at 55%.

The same assay, now with this note: LNCaP cells, compound 100 nM, 8 hours, Western blot grayscale, GAPDH internal reference; read-out: Degradation rates of the AR protein in LNCaP cells, 100 nM (%).
With `COc1cc(O[C@H]2CC[C@H](NC(=O)c3ccc(N4CC(CN5CCC6(CC5)COc5c6ccc6c5C(=O)N(C5CCC(=O)NC5=O)C6=O)C4)nn3)CC2)ccc1C#N` (stereo partly drawn) [Compound 251], the inhibition at 0.1 µM was determined as 37%.
For `N#Cc1ccc(O[C@H]2CC[C@H](NC(=O)c3ccc(N4CCC5(CC4)CC(C(=O)N4CCC6(CC4)COc4c6ccc6c4CN(C4CCC(=O)NC4=O)C6=O)C5)nn3)CC2)cc1Cl` (stereo partly drawn) [Compound 254], the inhibition at 0.1 µM is 45%.
Turning to `N#Cc1ccc(O[C@H]2CC[C@H](NC(=O)c3ccc(N4CC5(CCC(C(=O)N6CCC7(CC6)COc6c7ccc7c6CN(C6CCC(=O)NC6=O)C7=O)CC5)C4)nn3)CC2)cc1Cl` (stereo partly drawn) [Compound 255], the inhibition at 0.1 µM amounted to 44%.

For the origin of these results see patent US20260234157A1, “COMPOUND AND METHOD FOR TARGETED DEGRADATION OF ANDROGEN RECEPTOR” (Gan & Lee Pharmaceuticals Co., Ltd., priority 2023, published 2026).
